In paper PMC5218480 (PLoS ONE, 2017):

System: MV-4-11 cells
Assay: Gene expression microarray analysis (Affymetrix PrimeView) and GSEA
Type: cell-based, human
Set-up: RFU PODN (11730768_x_at) / Fold change /veh PODN (11730768_x_at) / RFU LINC00158 (11744669_a_at) / Fold change /veh LINC00158 (11744669_a_at) / RFU DUSP10 (11751237_a_at) / Fold change /veh DUSP10 (11751237_a_at) / RFU ID3 (11757404_x_at) / Fold change /veh ID3 (11757404_x_at) / RFU PLEKHG5 (11737974_s_at) / Fold change /veh PLEKHG5 (11737974_s_at) / RFU LRRC4B (11730491_at) / Fold change /veh LRRC4B (11730491_at) / RFU GIMAP4 (11747438_a_at) / Fold change /veh GIMAP4 (11747438_a_at) / RFU KRT8 (11758183_x_at) / Fold change /veh KRT8 (11758183_x_at) / RFU CNN1 (11734310_a_at) / Fold change /veh CNN1 (11734310_a_at) / RFU VPS37D (11726825_at) / Fold change /veh VPS37D (11726825_at) / RFU C10orf10 (11716522_x_at) / Fold change /veh C10orf10 (11716522_x_at) / RFU KIR2DL2 /// KIR2DL4 /// KIR2DL5A /// KIR2DL5B /// KIR2DS1 /// KIR2DS2 /// KIR2DS3 /// KIR2DS4 /// KIR3DL3 /// KIR3DL3 /// KIR3DS1 (11738374_at) / Fold change /veh KIR2DL2 /// KIR2DL4 /// KIR2DL5A /// KIR2DL5B /// KIR2DS1 /// KIR2DS2 /// KIR2DS3 /// KIR2DS4 /// KIR3DL3 /// KIR3DL3 /// KIR3DS1 (11738374_at) / RFU C1QL1 (11718748_at) / Fold change /veh C1QL1 (11718748_at) / RFU TMPRSS4 (11747572_a_at) / Fold change /veh TMPRSS4 (11747572_a_at) / RFU HAMP (11756126_x_at) / Fold change /veh HAMP (11756126_x_at) / RFU RNFT2 (11725882_a_at) / Fold change /veh RNFT2 (11725882_a_at) / RFU NR4A2 (11747474_a_at) / Fold change /veh NR4A2 (11747474_a_at) / RFU ABCC12 (11746883_a_at) / Fold change /veh ABCC12 (11746883_a_at) / RFU TMEM136 (11760407_x_at) / Fold change /veh TMEM136 (11760407_x_at) / RFU CLDN22 /// WWC2 (11732394_at) / Fold change /veh CLDN22 /// WWC2 (11732394_at) / RFU HLA-DPB1 (11760878_x_at) / Fold change /veh HLA-DPB1 (11760878_x_at) / RFU SPINT1 (11716480_a_at) / Fold change /veh SPINT1 (11716480_a_at) / RFU GAP43 (11754022_s_at) / Fold change /veh GAP43 (11754022_s_at) / RFU A4GNT (11735810_at) / Fold change /veh A4GNT (11735810_at) / RFU PRB3 (11715151_x_at) / Fold change /veh PRB3 (11715151_x_at) / RFU TUBB4B (11761932_at) / Fold change /veh TUBB4B (11761932_at) / RFU CAPN14 (11732068_a_at) / Fold change /veh CAPN14 (11732068_a_at) / RFU TMCC2 (11721928_a_at) / Fold change /veh TMCC2 (11721928_a_at) / RFU IRGQ (11745062_a_at) / Fold change /veh IRGQ (11745062_a_at) / RFU FAM174B (11720279_a_at) / Fold change /veh FAM174B (11720279_a_at) / RFU TMPRSS4 (11748680_a_at) / Fold change /veh TMPRSS4 (11748680_a_at) / RFU FAM212B (11763350_a_at) / Fold change /veh FAM212B (11763350_a_at) / RFU PLEKHG5 (11743358_a_at) / Fold change /veh PLEKHG5 (11743358_a_at) / RFU ZSCAN30 (11745921_a_at) / Fold change /veh ZSCAN30 (11745921_a_at) / RFU CMKLR1 (11741424_a_at) / Fold change /veh CMKLR1 (11741424_a_at) / RFU LOC101060620 /// MAPK8IP1 (11723275_at) / Fold change /veh LOC101060620 /// MAPK8IP1 (11723275_at) / RFU SPTSSB (11747773_x_at) / Fold change /veh SPTSSB (11747773_x_at) / RFU PRSS12 (11739890_at) / Fold change /veh PRSS12 (11739890_at) / RFU BIN1 (11741810_x_at) / Fold change /veh BIN1 (11741810_x_at) / RFU WNT11 (11732464_a_at) / Fold change /veh WNT11 (11732464_a_at) / RFU C10orf10 (11716521_a_at) / Fold change /veh C10orf10 (11716521_a_at) / RFU C5orf56 (11738089_at) / Fold change /veh C5orf56 (11738089_at) / RFU CYB561 (11721691_x_at) / Fold change /veh CYB561 (11721691_x_at) / RFU ANKRD19P (11752326_a_at) / Fold change /veh ANKRD19P (11752326_a_at) / RFU OR2T12 /// OR2T33 /// OR2T8 (11738714_s_at) / Fold change /veh OR2T12 /// OR2T33 /// OR2T8 (11738714_s_at) / RFU VCAN (11748164_a_at) / Fold change /veh VCAN (11748164_a_at) / RFU JSRP1 (11732532_at) / Fold change /veh JSRP1 (11732532_at) / RFU KRTAP10-11 (11738290_x_at) / Fold change /veh KRTAP10-11 (11738290_x_at) / RFU MYO3A (11730013_a_at) / Fold change /veh MYO3A (11730013_a_at) / RFU EBF3 (11725865_a_at) / Fold change /veh EBF3 (11725865_a_at) / RFU CAMK2N1 (11719241_x_at) / Fold change /veh CAMK2N1 (11719241_x_at) / RFU C5orf56 (11738088_a_at) / Fold change /veh C5orf56 (11738088_a_at) / RFU OLFML3 (11715873_a_at) / Fold change /veh OLFML3 (11715873_a_at) / RFU LOC100653217 /// NTM (11731650_a_at) / Fold change /veh LOC100653217 /// NTM (11731650_a_at) / RFU MAPK11 (11762145_a_at) / Fold change /veh MAPK11 (11762145_a_at) / RFU FIZ1 (11724087_x_at) / Fold change /veh FIZ1 (11724087_x_at) / RFU OASL (11726364_x_at) / Fold change /veh OASL (11726364_x_at) / RFU SOX15 (11748057_x_at) / Fold change /veh SOX15 (11748057_x_at) / RFU CD79A (11719716_a_at) / Fold change /veh CD79A (11719716_a_at) / RFU HIST1H1D (11736915_at) / Fold change /veh HIST1H1D (11736915_at) / RFU CASKIN2 (11723855_a_at) / Fold change /veh CASKIN2 (11723855_a_at) / RFU LOC730098 (11760151_x_at) / Fold change /veh LOC730098 (11760151_x_at) / RFU OR4N2 (11742367_at) / Fold change /veh OR4N2 (11742367_at) / RFU PRRT2 (11749266_a_at) / Fold change /veh PRRT2 (11749266_a_at) / RFU SNX32 (11753110_a_at) / Fold change /veh SNX32 (11753110_a_at) / RFU CDHR5 (11726645_a_at) / Fold change /veh CDHR5 (11726645_a_at) / RFU RCAN1 (11760418_a_at) / Fold change /veh RCAN1 (11760418_a_at) / RFU FAM167A (11723789_a_at) / Fold change /veh FAM167A (11723789_a_at) / RFU FAM26E (11764081_at) / Fold change /veh FAM26E (11764081_at) / RFU ISYNA1 (11749810_s_at) / Fold change /veh ISYNA1 (11749810_s_at) / RFU ACY1 (11761880_at) / Fold change /veh ACY1 (11761880_at) / RFU 11764098_at / Fold change /veh 11764098_at / RFU SAMD14 (11745864_x_at) / Fold change /veh SAMD14 (11745864_x_at) / RFU NPB (11741838_a_at) / Fold change /veh NPB (11741838_a_at) / RFU TMPRSS6 (11731388_a_at) / Fold change /veh TMPRSS6 (11731388_a_at) / RFU KRTAP10-2 (11738614_at) / Fold change /veh KRTAP10-2 (11738614_at) / RFU ARHGAP8 /// PRR5-ARHGAP8 (11727945_x_at) / Fold change /veh ARHGAP8 /// PRR5-ARHGAP8 (11727945_x_at) / RFU KRTAP5-7 /// NADSYN1 (11734609_at) / Fold change /veh KRTAP5-7 /// NADSYN1 (11734609_at) / RFU RASL12 (11751679_a_at) / Fold change /veh RASL12 (11751679_a_at) / RFU CDKN2B (11736163_a_at) / Fold change /veh CDKN2B (11736163_a_at) / RFU PRF1 (11729649_at) / Fold change /veh PRF1 (11729649_at) / RFU, ZNF638 /// ZNF638-IT1 / Fold change vs veh, ZNF638 /// ZNF638-IT1 / RFU, PANK3 / Fold change vs veh, PANK3 / RFU, SH3YL1 / Fold change vs veh, SH3YL1 / RFU, ZEB2 / Fold change vs veh, ZEB2 / RFU, NRIP1 / Fold change vs veh, NRIP1 / RFU, PTTG1IP / Fold change vs veh, PTTG1IP / RFU, CAPN2 / Fold change vs veh, CAPN2 / RFU, MED14 / Fold change vs veh, MED14 / RFU, SNORA58 / Fold change vs veh, SNORA58 / RFU, C1orf63 / Fold change vs veh, C1orf63 / RFU, LRRFIP1 / Fold change vs veh, LRRFIP1 / RFU, NDUFAF7 / Fold change vs veh, NDUFAF7 / RFU, SLC12A2 / Fold change vs veh, SLC12A2 / RFU, IBTK / Fold change vs veh, IBTK / RFU, ESF1 / Fold change vs veh, ESF1 / Fold change vs veh, TMEM50B / RFU, TAOK1 / Fold change vs veh, TAOK1 / RFU, ACBD3 / Fold change vs veh, ACBD3 / RFU, TMA16 / Fold change vs veh, TMA16 / RFU, RWDD3 / Fold change vs veh, RWDD3 / RFU, BCAT1 / Fold change vs veh, BCAT1 / RFU, EDEM3 / Fold change vs veh, EDEM3 / RFU, TMEM33 / Fold change vs veh, TMEM33 / RFU, WDR75 / Fold change vs veh, WDR75 / RFU, AHCTF1 / Fold change vs veh, AHCTF1 / RFU, TFRC / Fold change vs veh, TFRC / RFU, ZDHHC17 / Fold change vs veh, ZDHHC17 / RFU, NOM1 / Fold change vs veh, NOM1 / RFU, ARL8B / Fold change vs veh, ARL8B / RFU, ZBTB11 / Fold change vs veh, ZBTB11 / RFU, TAMM41 / Fold change vs veh, TAMM41 / RFU, KIAA1704 /// LOC100996395 / Fold change vs veh, KIAA1704 /// LOC100996395 / RFU, ING1 / Fold change vs veh, ING1 / RFU, TRMT61B / Fold change vs veh, TRMT61B / RFU, FUBP3 / Fold change vs veh, FUBP3 / RFU, TP53 / Fold change vs veh, TP53 / RFU, TNKS2 / Fold change vs veh, TNKS2 / RFU, ZFP14 / Fold change vs veh, ZFP14 / RFU, ACTR2 / Fold change vs veh, ACTR2 / RFU, PPP3R1 / Fold change vs veh, PPP3R1 / RFU, PIK3R1 / Fold change vs veh, PIK3R1 / RFU, HNRNPA1 / Fold change vs veh, HNRNPA1 / RFU, RNF170 / Fold change vs veh, RNF170 / RFU, ZNF28 / Fold change vs veh, ZNF28 / RFU, RNGTT / Fold change vs veh, RNGTT / RFU, OGT / Fold change vs veh, OGT / RFU, BRD1 / Fold change vs veh, BRD1 / RFU, MARS / Fold change vs veh, MARS / RFU, ZNF655 / Fold change vs veh, ZNF655 / RFU, FAHD1 / Fold change vs veh, FAHD1 / RFU, BDP1 / Fold change vs veh, BDP1 / RFU, LRRCC1 / Fold change vs veh, LRRCC1 / RFU, ARID1A / Fold change vs veh, ARID1A / RFU, ZNF146 / Fold change vs veh, ZNF146 / RFU, ZNF330 / Fold change vs veh, ZNF330 / RFU, GPN3 / Fold change vs veh, GPN3 / RFU, C9orf123 / Fold change vs veh, C9orf123 / RFU, N4BP2L2 / Fold change vs veh, N4BP2L2 / RFU, ARFIP1 / Fold change vs veh, ARFIP1 / RFU, FAM179B / Fold change vs veh, FAM179B / RFU, BCL10 / Fold change vs veh, BCL10 / RFU, UHRF1BP1L / Fold change vs veh, UHRF1BP1L / RFU, BET1 / Fold change vs veh, BET1 / RFU, CNOT2 / Fold change vs veh, CNOT2 / RFU, ZNF268 / Fold change vs veh, ZNF268 / Fold change vs veh, ZNF507 / RFU, DGCR2 / Fold change vs veh, DGCR2 / RFU, WDSUB1 / Fold change vs veh, WDSUB1 / Fold change vs veh, HSP90B1 /// MIR3652 / RFU, ADSS / Fold change vs veh, ADSS / RFU, GK / Fold change vs veh, GK / RFU, ZNF148 / Fold change vs veh, ZNF148 / RFU, TAF9 / Fold change vs veh, TAF9 / RFU, SLC1A5 / Fold change vs veh, SLC1A5 / RFU, SLMO2 / Fold change vs veh, SLMO2 / RFU, ABCC4 / Fold change vs veh, ABCC4 / RFU, LOC101060439 /// RAP1B / Fold change vs veh, LOC101060439 /// RAP1B / RFU, RFX7 / Fold change vs veh, RFX7 / RFU, GTPBP10 / Fold change vs veh, GTPBP10 / RFU, CNEP1R1 / Fold change vs veh, CNEP1R1 / RFU, BIVM-ERCC5 /// ERCC5 / Fold change vs veh, BIVM-ERCC5 /// ERCC5 / RFU, ILF3 / Fold change vs veh, ILF3 / RFU 11762660_at / Fold change /veh 11762660_at / RFU VCAN (11757783_s_at) / Fold change /veh VCAN (11757783_s_at) / RFU DDX43 (11728927_at) / Fold change /veh DDX43 (11728927_at) / RFU KRT8 (11758188_x_at) / Fold change /veh KRT8 (11758188_x_at) / RFU NKD1 (11759106_at) / Fold change /veh NKD1 (11759106_at) / RFU SRD5A1 (11742802_a_at) / Fold change /veh SRD5A1 (11742802_a_at) / RFU TPSAB1 /// TPSB2 (11721975_s_at) / Fold change /veh TPSAB1 /// TPSB2 (11721975_s_at) / RFU GSTM3 (11746129_a_at) / Fold change /veh GSTM3 (11746129_a_at) / RFU IL23R (11737362_x_at) / Fold change /veh IL23R (11737362_x_at) / RFU TMEM51 (11727254_a_at) / Fold change /veh TMEM51 (11727254_a_at) / RFU PIWIL2 (11732686_x_at) / Fold change /veh PIWIL2 (11732686_x_at) / RFU ORM1 (11744905_x_at) / Fold change /veh ORM1 (11744905_x_at) / RFU CCDC152 (11743942_at) / Fold change /veh CCDC152 (11743942_at) / RFU ECM1 (11717891_a_at) / Fold change /veh ECM1 (11717891_a_at) / RFU IL23R (11748794_a_at) / Fold change /veh IL23R (11748794_a_at) / RFU TNFAIP8L3 (11732012_x_at) / Fold change /veh TNFAIP8L3 (11732012_x_at) / RFU MBOAT4 (11741988_at) / Fold change /veh MBOAT4 (11741988_at) / RFU 11764193_at / Fold change /veh 11764193_at / RFU TMEM53 (11763286_at) / Fold change /veh TMEM53 (11763286_at) / RFU MAGEB2 (11727129_at) / Fold change /veh MAGEB2 (11727129_at) / RFU TMEM200A (11744735_a_at) / Fold change /veh TMEM200A (11744735_a_at) / RFU CCDC152 (11751479_a_at) / Fold change /veh CCDC152 (11751479_a_at) / RFU FAM211A (11726209_a_at) / Fold change /veh FAM211A (11726209_a_at) / RFU RGS16 (11746705_a_at) / Fold change /veh RGS16 (11746705_a_at) / RFU VCAN (11755009_s_at) / Fold change /veh VCAN (11755009_s_at) / RFU RHOB (11743442_s_at) / Fold change /veh RHOB (11743442_s_at) / RFU RGS16 (11720943_a_at) / Fold change /veh RGS16 (11720943_a_at) / RFU RGS16 (11720944_at) / Fold change /veh RGS16 (11720944_at) / RFU, VPS4B / Fold change vs veh, VPS4B / RFU, CREB1 / Fold change vs veh, CREB1 / RFU, DNAJC13 / Fold change vs veh, DNAJC13 / RFU, GNAQ / Fold change vs veh, GNAQ / RFU, CDK5R1 / Fold change vs veh, CDK5R1 / RFU, ZRANB3 / Fold change vs veh, ZRANB3 / RFU, CUL4A / Fold change vs veh, CUL4A / RFU, CCNY / Fold change vs veh, CCNY / RFU, UFL1 / Fold change vs veh, UFL1 / RFU, COG3 / Fold change vs veh, COG3 / RFU, DIAPH2 / Fold change vs veh, DIAPH2 / RFU, SKA2 / Fold change vs veh, SKA2 / RFU, AFF3 / Fold change vs veh, AFF3 / RFU, LMF1 / Fold change vs veh, LMF1 / RFU, IPO11 / Fold change vs veh, IPO11 / RFU, DFFB / Fold change vs veh, DFFB / RFU, FOXP1 / Fold change vs veh, FOXP1 / RFU, CARD8 / Fold change vs veh, CARD8 / RFU, STRN3 / Fold change vs veh, STRN3 / RFU, ADK / Fold change vs veh, ADK / RFU, RASSF2 / Fold change vs veh, RASSF2 / RFU, WIPF1 / Fold change vs veh, WIPF1 / RFU, LARP1B / Fold change vs veh, LARP1B / RFU, RASA1 / Fold change vs veh, RASA1 / RFU, RB1 / Fold change vs veh, RB1 / RFU, PPFIA1 / Fold change vs veh, PPFIA1 / RFU, MAT2A / Fold change vs veh, MAT2A / RFU, CCT5 / Fold change vs veh, CCT5 / RFU, WDR92 / Fold change vs veh, WDR92 / RFU, CUX1 / Fold change vs veh, CUX1 / RFU, TTC7A / Fold change vs veh, TTC7A / RFU, TMEM135 / Fold change vs veh, TMEM135 / RFU, DEPTOR / Fold change vs veh, DEPTOR / RFU, CPM / Fold change vs veh, CPM / RFU, DNAJB6 / Fold change vs veh, DNAJB6 / RFU, CACNA2D3 / Fold change vs veh, CACNA2D3 / RFU, DTX4 / Fold change vs veh, DTX4 / RFU, TFCP2 / Fold change vs veh, TFCP2 / RFU, GMCL1 /// GMCL1P1 / Fold change vs veh, GMCL1 /// GMCL1P1 / RFU, AEBP2 / Fold change vs veh, AEBP2 / RFU, SNHG1 /// SNORD22 /// SNORD25 /// SNORD26 /// SNORD27 /// SNORD28 /// SNORD29 /// SNORD31 / Fold change vs veh, SNHG1 /// SNORD22 /// SNORD25 /// SNORD26 /// SNORD27 /// SNORD28 /// SNORD29 /// SNORD31 / Fold change (Aza/veh), C12orf56 (ProbeSet 11735607_a_at) / Fold change (ACY-1035/veh), C12orf56 (ProbeSet 11735607_a_at) / Fold change (Aza/veh), FGFR1OP (ProbeSet 11751329_s_at) / Fold change (ACY-1035/veh), FGFR1OP (ProbeSet 11751329_s_at) / Fold change (Aza/veh), VPS36 (ProbeSet 11739960_a_at) / Fold change (ACY-1035/veh), VPS36 (ProbeSet 11739960_a_at) / RFU SYPL1 (11715823_x_at) / Fold change /veh SYPL1 (11715823_x_at) / RFU IGFBP7 (11715501_s_at) / Fold change /veh IGFBP7 (11715501_s_at) / RFU REEP3 (11722064_at) / Fold change /veh REEP3 (11722064_at) / RFU IGLL1 (11728026_x_at) / Fold change /veh IGLL1 (11728026_x_at): dose or concentration left out as unconfirmed
Conditions: ProbeSet 11731093_s_at; LIST B

Q: `Nc1ncn([C@@H]2O[C@H](CO)[C@@H](O)[C@H]2O)c(=O)n1` [azacitidine] was tested. Which “RFU, BRD1” value did it give?
A: 186.03 RFU
